Laboratory results: US11006600B2, “Rice cultivar designated ‘CL272’” (Board of Supervisors of Louisiana State University and …, priority 2016, dated 2021)

The compounds below were run on rice cultivar 'CL272' (assay: Herbicide tolerance and susceptibility characteristics of rice variety 'CL272'). Settings: at levels of the herbicide that would normally inhibit the growth of a rice plant.
Format: in vivo, Oryza sativa
From the text: Among others, the herbicide tolerance and susceptibility characteristics of ‘CL272’ include or are expected to include the following. These characteristics are in some cases based on actual observations to date, and in other cases reflect assumptions based on direct descent from ‘CL161’: […]

Row | SMILES | response of 'CL272' rice to the herbicide (resistant / sensitive)
1 | CCOC(=O)c1ccccc1S(=O)(=O)NC(=O)Nc1nc(Cl)cc(OC)n1 [chlorimuron ethyl] | sensitive
2 | COCc1cnc(C2=NC(C)(C(C)C)C(=O)N2)c(C(=O)O)c1 (centres unmarked) [imazamox] | resistant
3 | Cc1cnc(C2=NC(=O)C(C)(C(C)C)N2)c(C(=O)O)c1 (centres unmarked) [imazapic] | resistant
4 | CC(C)C1(C)N=C(c2ncccc2C(=O)O)NC1=O (centres unmarked) [imazapyr] | resistant
5 | CC(C)C1(C)N=C(c2nc3ccccc3cc2C(=O)O)NC1=O (centres unmarked) [imazaquin] | resistant
6 | CCc1cnc(C2=NC(C)(C(C)C)C(=O)N2)c(C(=O)O)c1 (centres unmarked) [imazethapyr] | resistant
7 | COC(=O)c1ccccc1S(=O)(=O)NC(=O)Nc1nc(C)nc(OC)n1 [metsulfuron methyl] | resistant
8 | COc1cc(OC)nc(NC(=O)NS(=O)(=O)c2ncccc2C(=O)N(C)C)n1 [nicosulfuron] | resistant
9 | CCS(=O)(=O)c1cccnc1S(=O)(=O)NC(=O)Nc1nc(OC)cc(OC)n1 [rimsulfuron] | sensitive
10 | COC(=O)c1ccccc1S(=O)(=O)NC(=O)Nc1nc(C)cc(C)n1 [sulfometuron methyl] | sensitive
11 | COC(=O)c1sccc1S(=O)(=O)NC(=O)Nc1nc(C)nc(OC)n1 [thifensulfuron methyl] | resistant
12 | COC(=O)c1ccccc1S(=O)(=O)NC(=O)N(C)c1nc(C)nc(OC)n1 [tribenuron methyl] | resistant

Same assay, conditions: in vivo

Row | SMILES | resistance of 'CL272' rice to imidazolinone herbicides, general statement
13 | COCc1cnc(C2=NC(C)(C(C)C)C(=O)N2)c(C(=O)O)c1 (centres unmarked) [imazamox] | highly resistant
14 | CCc1cnc(C2=NC(C)(C(C)C)C(=O)N2)c(C(=O)O)c1 (centres unmarked) [imazethapyr] | highly resistant
